The values below come from US11739098B2 (BRISTOL-MYERS SQUIBB COMPANY, priority 2017, dated 2023).

pIC50: −log10 of the molar value. Some results are limits rather than exact numbers.

Common to all, as to type: cell-based
One experiment has as its target T1, human TLR7 (Homo sapiens, UniProt Q9NYK1).
T1 construct: host or cells: HEK-Blue cells (HEK293-derived reporter line)
T1 sequence (Q9NYK1 27-1049): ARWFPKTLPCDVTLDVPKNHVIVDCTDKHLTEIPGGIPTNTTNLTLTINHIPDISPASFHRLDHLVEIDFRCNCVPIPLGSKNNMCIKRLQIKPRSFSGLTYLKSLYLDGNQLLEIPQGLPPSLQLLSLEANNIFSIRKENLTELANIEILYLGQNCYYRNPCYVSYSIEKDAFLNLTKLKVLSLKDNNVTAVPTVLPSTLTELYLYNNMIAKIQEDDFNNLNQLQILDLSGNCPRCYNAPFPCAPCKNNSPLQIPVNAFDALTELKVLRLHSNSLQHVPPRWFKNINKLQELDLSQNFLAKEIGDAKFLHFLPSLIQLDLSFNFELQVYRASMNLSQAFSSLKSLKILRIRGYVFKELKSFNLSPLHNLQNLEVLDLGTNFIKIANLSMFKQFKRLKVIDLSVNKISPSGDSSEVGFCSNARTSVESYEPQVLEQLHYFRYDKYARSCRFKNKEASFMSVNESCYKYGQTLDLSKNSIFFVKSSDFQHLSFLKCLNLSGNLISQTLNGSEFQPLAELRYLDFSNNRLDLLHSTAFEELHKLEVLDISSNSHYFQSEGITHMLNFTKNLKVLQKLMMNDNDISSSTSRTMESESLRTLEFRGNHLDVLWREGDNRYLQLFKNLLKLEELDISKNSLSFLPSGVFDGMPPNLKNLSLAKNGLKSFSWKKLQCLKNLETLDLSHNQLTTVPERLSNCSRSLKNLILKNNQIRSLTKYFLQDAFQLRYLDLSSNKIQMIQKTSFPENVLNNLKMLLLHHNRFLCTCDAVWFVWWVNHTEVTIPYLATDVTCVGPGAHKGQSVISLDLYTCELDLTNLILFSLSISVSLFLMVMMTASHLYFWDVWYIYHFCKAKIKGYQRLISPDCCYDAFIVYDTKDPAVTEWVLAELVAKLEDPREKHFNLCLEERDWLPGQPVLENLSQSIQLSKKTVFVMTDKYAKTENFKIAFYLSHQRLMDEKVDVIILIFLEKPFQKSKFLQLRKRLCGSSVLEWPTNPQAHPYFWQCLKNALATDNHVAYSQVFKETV
Nature of the experiment: TLR7 inhibition reporter assay (HEK-Blue cells, SEAP reporter, gardiquimod stimulation). As to conditions: HEK-Blue cells overexpressing human TLR7, SEAP reporter, gardiquimod 7.5 μM. In short, it runs like this: (§1)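 Read-out is SEAP activity in HEK-Blue detection medium after 22 h at 37 °C, converted to percent inhibition against agonist-plus-DMSO and reference-inhibitor controls. Cells saw compound (0.05 nM–50 μM, 30 min, room temperature) before gardiquimod 7.5 μM, R848 15.9 μM or ODN2006 5 nM for TLR7, TLR8 and TLR9, respectively.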

In another experiment the target is T2, human TLR8 (Homo sapiens, UniProt Q9NR97).
T2 construct: host or cells: HEK-Blue cells (HEK293-derived reporter line)
T2 sequence (Q9NR97 27-1041): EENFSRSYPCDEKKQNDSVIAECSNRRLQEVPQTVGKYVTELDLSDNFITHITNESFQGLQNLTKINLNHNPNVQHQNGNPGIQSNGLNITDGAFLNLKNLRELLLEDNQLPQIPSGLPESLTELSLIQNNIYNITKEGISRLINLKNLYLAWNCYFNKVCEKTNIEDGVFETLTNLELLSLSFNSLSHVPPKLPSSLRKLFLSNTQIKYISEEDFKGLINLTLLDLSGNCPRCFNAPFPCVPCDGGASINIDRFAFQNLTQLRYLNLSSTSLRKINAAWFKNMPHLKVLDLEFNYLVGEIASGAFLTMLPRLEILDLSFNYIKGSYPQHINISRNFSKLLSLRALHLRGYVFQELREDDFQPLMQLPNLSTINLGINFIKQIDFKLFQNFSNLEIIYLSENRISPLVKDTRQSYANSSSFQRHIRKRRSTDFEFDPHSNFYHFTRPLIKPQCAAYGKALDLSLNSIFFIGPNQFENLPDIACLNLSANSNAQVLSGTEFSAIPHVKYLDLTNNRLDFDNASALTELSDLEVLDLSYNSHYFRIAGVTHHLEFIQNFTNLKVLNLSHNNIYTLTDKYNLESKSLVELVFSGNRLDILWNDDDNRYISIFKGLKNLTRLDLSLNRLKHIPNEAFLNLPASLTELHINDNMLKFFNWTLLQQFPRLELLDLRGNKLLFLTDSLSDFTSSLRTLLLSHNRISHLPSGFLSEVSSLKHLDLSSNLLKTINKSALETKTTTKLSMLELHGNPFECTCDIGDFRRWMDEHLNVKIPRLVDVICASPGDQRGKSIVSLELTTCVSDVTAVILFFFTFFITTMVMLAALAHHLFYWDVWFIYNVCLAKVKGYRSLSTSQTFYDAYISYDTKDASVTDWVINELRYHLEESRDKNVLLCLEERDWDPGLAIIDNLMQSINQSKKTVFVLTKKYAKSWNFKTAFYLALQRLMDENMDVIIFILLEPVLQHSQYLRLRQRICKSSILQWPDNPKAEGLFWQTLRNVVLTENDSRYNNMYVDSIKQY
Briefly: TLR8 inhibition reporter assay (HEK-Blue cells, SEAP reporter, R848 stimulation). As to conditions: HEK-Blue cells overexpressing human TLR8, SEAP reporter, R848 15.9 μM. The procedure, abridged:
as §1
Background: Reporter assays use an easily measured gene product as a stand-in for the process of interest.

The target of a further experiment is T3, human TLR9 (Homo sapiens, UniProt Q9NR96).
T3 construct: host or cells: HEK-Blue cells (HEK293-derived reporter line)
T3 sequence (Q9NR96 26-1032): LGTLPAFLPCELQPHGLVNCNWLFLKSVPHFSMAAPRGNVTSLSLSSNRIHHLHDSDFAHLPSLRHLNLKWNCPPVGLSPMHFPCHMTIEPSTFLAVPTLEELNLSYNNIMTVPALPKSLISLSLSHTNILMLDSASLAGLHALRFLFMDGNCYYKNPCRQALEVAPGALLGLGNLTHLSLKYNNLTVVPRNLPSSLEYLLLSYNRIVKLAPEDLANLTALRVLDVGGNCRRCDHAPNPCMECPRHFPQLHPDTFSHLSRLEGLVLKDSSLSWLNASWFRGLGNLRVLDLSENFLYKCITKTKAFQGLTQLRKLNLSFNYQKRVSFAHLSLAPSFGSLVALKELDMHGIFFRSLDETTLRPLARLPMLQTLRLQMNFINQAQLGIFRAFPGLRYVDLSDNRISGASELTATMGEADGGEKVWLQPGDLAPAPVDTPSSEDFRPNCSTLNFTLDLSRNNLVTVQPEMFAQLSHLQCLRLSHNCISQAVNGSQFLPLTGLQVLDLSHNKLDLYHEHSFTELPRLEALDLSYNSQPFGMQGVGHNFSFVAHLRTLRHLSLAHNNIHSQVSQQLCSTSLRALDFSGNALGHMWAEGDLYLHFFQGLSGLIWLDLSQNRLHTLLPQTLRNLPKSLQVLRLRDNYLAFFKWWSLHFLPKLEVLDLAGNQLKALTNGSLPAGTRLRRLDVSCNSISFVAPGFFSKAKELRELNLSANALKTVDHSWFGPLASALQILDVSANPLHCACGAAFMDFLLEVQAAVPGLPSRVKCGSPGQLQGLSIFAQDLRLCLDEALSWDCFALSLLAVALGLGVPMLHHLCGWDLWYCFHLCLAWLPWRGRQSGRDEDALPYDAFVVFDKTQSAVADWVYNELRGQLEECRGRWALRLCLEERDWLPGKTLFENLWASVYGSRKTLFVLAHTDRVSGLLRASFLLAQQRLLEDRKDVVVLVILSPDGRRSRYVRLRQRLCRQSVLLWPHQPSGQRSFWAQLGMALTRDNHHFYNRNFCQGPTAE
Nature of the experiment: TLR9 inhibition reporter assay (HEK-Blue cells, SEAP reporter, ODN2006 stimulation). The settings on record: HEK-Blue cells overexpressing human TLR9, SEAP reporter, ODN2006 5 nM. In short, it runs like this:
as §1

The term pIC50 denotes the IC50 on a negative log10 scale, so that one unit is a factor of ten. A high value points to a low IC50.

In the case of `Cc1n[nH]c2nccc(-c3[nH]c4ccc(C5CCNCC5)cc4c3C(C)C)c12` [Example 227, 4-(3-isopropyl-5-(piperidin-4-yl)-1H-indol-2-yl)-3-methyl-1H-pyrazolo[3,4-b]pyridine], the pIC50 is greater than 7.00 against human TLR7, greater than 7.00 against human TLR8 and 6.00 to 7.00 against human TLR9.
Consider `COc1c(C)c(-c2[nH]c3ccc(C4CCN(CC(C)(C)O)CC4)cc3c2C(C)C)nn2ncnc12` [Example 748, 1-(4-(3-isopropyl-2-(8-methoxy-7-methyl-[1,2,4]triazolo[1,5-b]pyridazin-6-yl)-1H-indol-5-yl)piperidin-1-yl)-2-methylpropan-2-ol], for which the negative logarithm of the IC50 (pIC50) on human TLR7 was greater than 7.00; against human TLR8 it was greater than 7.00; at human TLR9, 4.30 to 6.00.
With `CC(C)c1c(-c2nc3c(N)ncnc3[nH]2)[nH]c2ccc(C3CCNCC3)cc12` [Example 8, 8-(3-isopropyl-5-(piperidin-4-yl)-1H-indol-2-yl)-9H-purin-6-amine], the figures for the negative-log IC50 (pIC50) on human TLR7, on human TLR8 and against human TLR9 were 6.00 to 7.00, less than 5.51 and 4.30 to 6.00, respectively.
Taken in the same sequence, the figures for `CC(C)c1c(-c2cnc3ccnn3c2)[nH]c2ccc(C3CCN(C(=O)CN(C)C)CC3)cc12` [Example 502, 2-(dimethylamino)-1-(4-(3-isopropyl-2-(pyrazolo[1,5-a]pyrimidin-6-yl)-1H-indol-5-yl)piperidin-1-yl)ethan-1-one] were 4.30 to 6.00, less than 5.51 and 6.00 to 7.00.
For `CCN(C)CC(=O)N1CCC(c2ccc3[nH]c(-c4cc(C)c5nnnn5c4)c(C(C)C)c3c2)CC1` [Example 475, 2-(ethyl(methyl)amino)-1-(4-(3-isopropyl-2-(8-methyltetrazolo[1,5-a]pyridin-6-yl)-1H-indol-5-yl)piperidin-1-yl)ethan-1-one], in that order: greater than 7.00, greater than 7.00 and 4.30 to 6.00.
In the case of `CC(C)c1c(-c2ccnc3[nH]c(=O)[nH]c23)[nH]c2ccc(C3CCNCC3)cc12` [Example 57, 7-(3-isopropyl-5-(piperidin-4-yl)-1H-indol-2-yl)-1,3-dihydro-2H-imidazo[4,5-b]pyridin-2-one], the negative-log IC50 (pIC50) at human TLR7 was 6.00 to 7.00; against human TLR8, 4.30 to 6.00; against human TLR9, 4.30 to 6.00.
`CC(C)c1c(-c2ccnc3[nH]ncc23)[nH]c2ccc(C3CCN(C(=O)Cn4ccnc4)CC3)cc12` [Example 565, 2-(1H-imidazol-1-yl)-1-(4-(3-isopropyl-2-(1H-pyrazolo[3,4-b]pyridin-4-yl)-1H-indol-5-yl)piperidin-1-yl)ethan-1-one]: the values for the pIC50 at human TLR7, on human TLR8 and at human TLR9 were greater than 7.00, greater than 7.00 and 4.30 to 6.00, respectively.
As for `CC(C)c1c(-c2nc3cnccn3n2)[nH]c2ccc(C3CCNCC3)cc12` [Example 195, 2-(3-isopropyl-5-(piperidin-4-yl)-1H-indol-2-yl)-[1,2,4]triazolo[1,5-a]pyrazine], the negative-log IC50 (pIC50) at human TLR7 was 4.30 to 6.00; on human TLR8 it was greater than 7.00; against human TLR9, 4.30 to 6.00.
For `Cc1cc2nccn2cc1-c1[nH]c2ccc(C3CCN(C4CCOCC4)CC3)cc2c1C(C)C` [Example 693, 6-(3-isopropyl-5-(1-(tetrahydro-2H-pyran-4-yl)piperidin-4-yl)-1H-indol-2-yl)-7-methylimidazo[1,2-a]pyridine], the negative logarithm of the IC50 (pIC50) was greater than 7.00 against human TLR7, greater than 7.00 at human TLR8 and 6.00 to 7.00 on human TLR9.
For the compound `CCCN1CCC(c2ccc3[nH]c(-c4cc(OC)c5ncnn5n4)c(C(C)C)c3c2)CC1` [Example 952, 6-(3-isopropyl-5-(1-propylpiperidin-4-yl)-1H-indol-2-yl)-8-methoxy-[1,2,4]triazolo[1,5-b]pyridazine], the negative-log IC50 (pIC50) was greater than 7.00 on human TLR7, greater than 7.00 against human TLR8 and 4.30 to 6.00 at human TLR9.
With `CC(C)c1c(-c2cc(Cl)c3ncccc3c2)[nH]c2ccc(C3CCN(CC(C)(C)O)CC3)cc12` [Example 767, 1-(4-(2-(8-chloroquinolin-6-yl)-3-isopropyl-1H-indol-5-yl)piperidin-1-yl)-2-methylpropan-2-ol], the values for the pIC50 against human TLR7, at human TLR8 and against human TLR9 were greater than 7.00, greater than 7.00 and 4.30 to 6.00, respectively.
Consider `Cc1cc(-c2[nH]c3ccc(C4CCN(CC(=O)N(C)C)CC4)cc3c2C(C)C)cc2nccnc12` [Example 395, 2-(4-(3-isopropyl-2-(8-methylquinoxalin-6-yl)-1H-indol-5-yl)piperidin-1-yl)-N,N-dimethylacetamide], for which the pIC50 at human TLR7 is greater than 7.00; against human TLR8 it was greater than 7.00; on human TLR9, 4.30 to 6.00.
Take `Cc1cc(-c2[nH]c3ccc(C4CCN(C(=O)C[C@H](C)O)CC4)cc3c2C(C)C)cc2ncnn12` [Example 600, (S)-3-hydroxy-1-(4-(3-isopropyl-2-(5-methyl-[1,2,4]triazolo[1,5-a]pyridin-7-yl)-1H-indol-5-yl)piperidin-1-yl)butan-1-one]: the pIC50 against human TLR7 is greater than 7.00; against human TLR8, 6.00 to 7.00; against human TLR9, 4.30 to 6.00.
